According to article PMC3632407 (Chemical communications (Cambridge, England), 2013):
Where two headings read alike, the source gives them in different places. Where a SMILES comes first, the peptide text is derived from it.

Assays:
Assay type in all cases: cell-based
[1] = tested on: A. baumanii
[2] = tested on: K. pneumoniae
[3] = tested on: S. nterica; experiment: Minimal inhibitory concentration for bacteriocidal activity; details: MIC; strains in Supp. Info
[4] = tested on: MRSA
[5] = tested on: E.coli
[6] = tested on: E. faecium
[7] = tested on: P. aeruginosa

SMILES | Minimal inhibitory concentration for bacteriocidal activity, A. baumanii [1] [µM] | Minimal inhibitory concentration for bacteriocidal activity, K. pneumoniae [2] [µM] | Minimal inhibitory concentration for bacteriocidal activity, S. nterica [3] [µM] | Minimal inhibitory concentration for bacteriocidal activity, MRSA [4] [µM] | Minimal inhibitory concentration for bacteriocidal activity, E.coli [5] [µM] | Minimal inhibitory concentration for bacteriocidal activity, E. faecium [6] [µM] | Minimal inhibitory concentration for bacteriocidal activity, P. aeruginosa [7] [µM] | Minimal inhibitory concentration for bacteriocidal activity, A. baumanii ([1]; MIC, strains in Supp. Info) [µM] | Minimal inhibitory concentration for bacteriocidal activity, K. pneumoniae ([2]; MIC, strains in Supp. Info) [µM] | Minimal inhibitory concentration for bacteriocidal activity, MRSA ([4]; MIC, strains in Supp. Info) [µM] | Minimal inhibitory concentration for bacteriocidal activity, E.coli ([5]; MIC, strains in Supp. Info) [µM] | Minimal inhibitory concentration for bacteriocidal activity, E. faecium ([6]; MIC, strains in Supp. Info) [µM] | Minimal inhibitory concentration for bacteriocidal activity, P. aeruginosa ([7]; MIC, strains in Supp. Info) [µM]
N=C(N)NCCC[C@H](NC(=O)[C@H](CS)NC(=O)[C@H](Cc1ccc(O)cc1)NC(=O)[C@H](Cc1c[nH]c2ccccc12)NC(=O)[C@H](CCCNC(=N)N)NC(=O)[C@@H](N)Cc1c[nH]c2ccccc12)C(N)=O [Complex 1, WRWYCR-NH2] (H-WRWYCR-NH2) | 132 | 66 | 8 | 66 | 17 | 8 | 33 |  |  |  |  |  | 
NC[C@H]1O[C@H](O[C@H]2[C@H](O)[C@@H](O[C@H]3O[C@H](CO)[C@@H](O)[C@H](N)[C@H]3O)[C@H](N)C[C@@H]2N)[C@H](O)[C@@H](O)[C@@H]1O [kanamycin] |  |  | 1 |  |  |  |  | >264 | 66 | 264 | 8 | >264 | 33
